Data taken from article PMC12566703, “Design, Synthesis, In Vitro and In Silico Biological Evaluation of New Pyridine-2,5-Dicarboxylates Esters Bearing Natural Source Fragments as Anti-Trypanosomatid Agents” (Pharmaceutics, 2025).
Like-named read-outs stand apart in the source and are kept apart here.

Tests used:
[1] = Cytotoxicity assay, MTT method, 48 h; assay type: cell-based, murine; conditions: mouse, J774.2 macrophage cells, J774.2 cell line, read-out: Macrophage J774.2 CC50 (µM ± SD)
Protocol: A cytotoxicity assay was performed using the murine macrophage J774.2 cell line, which was recloned from the original ascites and solid tumor J774.1 (according to the manufacturer). The cells were cultured in RPMI medium supplemented with 10% SBF, 100 U […] penicillin, 100 µg/mL streptomycin, and glutamine (2 mM), and 5% CO2 atmosphere. The medium was changed every 2–3 days. Macrophages were used at 1 × 10^6 cells and were incubated with compounds at different concentrations (0.75–100 µM, respectively) at 37 °C for 48 h in a 5% CO2 atmosphere. DMSO was used as a negative control (0.2%). The metabolic activity of macrophages was determined by the MTT method. The percentage of cell viability was calculated, and the half-maximal cytotoxic concentration (CC50) was determined using probit analysis. Three independent assays were conducted in triplicate.

[2] = system: T. cruzi (A1) epimastigotes; assay: In vitro trypanocidal activity, Alamar Blue assay, 48 h; assay type: cell-based, Trypanosoma cruzi; conditions: for Selectivity Index T. cruzi A1: CC50 (J774.2)/IC50; for IC50: 48 h, read-out: T. cruzi IC50 (µM ± SD) A1
Protocol: (§1) Both strains were maintained in liver infusion tryptose (LIT) medium supplemented with 10% FBS and 0.1% penicillin-streptomycin. They were preserved by transferring 1 × 10^6 parasites/mL into a new culture medium every week. […] The metabolic activity was determined by the Alamar Blue assay. Briefly, after the incubation period, 20 µL of 2.5 mM resazurin solution was added to each well and incubated for 3 h. Three independent experiments were performed in triplicate. The half-maximum inhibitory concentration (IC50) was determined using probit analysis.

[3] = system: T. cruzi (NINOA) epimastigotes; assay: as above; assay type: cell-based, Trypanosoma cruzi; conditions: for Selectivity Index T. cruzi NINOA: CC50 (J774.2)/IC50; for IC50: 48 h, read-out: T. cruzi IC50 (µM ± SD) NINOA; for IC50 / Trypanocidal activity class in words, NINOA strain: epimastigotes, NINOA strain; for Trypanocidal activity class in words, NINOA strain: classes by IC50
Protocol: as §1

[4] = system: L. mexicana (MHOM/MX/2017/UABJO17FCQEPS) (FCQEPS) promastigotes; assay: In vitro leishmanicidal activity, MTT method, 48 h; assay type: cell-based, Leishmania mexicana; conditions: for Selectivity Index L. mexicana FCQEPS: CC50 (J774.2)/IC50; for IC50: Leishmania mexicana, 48 h, read-out: L. mexicana IC50 (µM ± SD) FCQEPS; for IC50 / Leishmanicidal activity class in words, FCQEPS strain: promastigotes, FCQEPS strain; for Leishmanicidal activity class in words, FCQEPS strain: classes by IC50
Protocol: (§2) To determine the leishmanicidal activity of pyridine-2,5-dicarboxylates, the parasites, in their logarithmic growth phase (5 × 10^5 parasites/mL), were cultured in 96-well microliter plates with the corresponding pyridine-2,5-dicarboxylate compound at different concentrations (0.78–100 µM). Compounds were dissolved in DMSO in a final volume of 200 µL for 48 h at 26 °C. Parasites treated with DMSO (0.2%) were used as a negative control, while treatments with Glucantime and Amphotericin B, at the same concentrations, were used as positive controls. The metabolic activity of the cells was determined using the 3-(4,5-Dimethylthiazol-2-yl)-2,5-diphenyltetrazolium bromide (MTT) method. IC50 was determined using probit analysis. Three independent experiments were performed in triplicate, and the data were analyzed for statistical significance (p < 0.05) using Biostat 5.3.0 software.

[5] = system: L. mexicana (MNYC/BZ/62/M379) (M379) promastigotes; assay: In vitro leishmanicidal activity, MTT method, 48 h; assay type: cell-based, Leishmania mexicana; conditions: for Selectivity Index L. mexicana M379: CC50 (J774.2)/IC50; for IC50: 48 h, read-out: L. mexicana IC50 (µM ± SD) M379; for IC50 / Leishmanicidal activity class in words, M379 strain: promastigotes, M379 strain; for Leishmanicidal activity class in words, M379 strain: classes by IC50
Protocol: as §2

[6] = Trypanosoma cruzi, epimastigotes, A1 strain

SMILES	CC50 at 48 h [1] [µM]	Selectivity Index T. cruzi A1 [2]	IC50 [2, 6] [µM]	Selectivity Index T. cruzi NINOA [3]	IC50 ([3]; Trypanosoma cruzi) [µM]	IC50 [3] [µM]	Selectivity Index L. mexicana FCQEPS [4]	IC50 [4] [µM]	Leishmanicidal activity class in words, FCQEPS strain [4]	Selectivity Index L. mexicana M379 [5]	IC50 ([5]; Leishmania mexicana) [µM]	Leishmanicidal activity class in words, M379 strain [5]	IC50 [5] [µM]	Trypanocidal activity class in words, NINOA strain [3]	IC50 ([2]; epimastigotes, A1 strain) [µM]	Trypanocidal activity class in words, A1 strain ([2]; epimastigotes, A1 strain, classes by IC50)
CCOC(=O)c1nc(C)c(C(=O)OCc2ccc3c(c2)OCO3)cc1-c1ccccc1 [Compound 6a, 5-(Benzo[d][1,3]dioxol-5-ylmethyl) 2-ethyl 6-methyl-3-phenylpyridine-2,5-dicarboxylate]	> 200	>1	> 200	>7.3	< 28	27.2 ± 0.84	>1	> 200	did not have leishmanicidal activity	>1	> 200	did not have antiparasitic activity				
CCOC(=O)c1nc(C)c(C(=O)OCc2ccc3c(c2)OCO3)cc1-c1ccc(C)cc1 [Compound 6b]	> 200	>4.0	50.2 ± 2.31	>3.7	54 ± 2.29		>1	> 200		>1	> 200	did not have antiparasitic activity				
CCOC(=O)c1nc(C)c(C(=O)OCC23CC4CC(CC(C4)C2)C3)cc1-c1ccc(F)cc1 [Compound 10c]	> 200	>5.2	38.2 ± 2.86	>4.0	50.6 ± 1.06		>1	> 200	abolished their leishmanicidal activity	>3.6	< 56		54.8			
CCOC(=O)c1cc(-c2ccccc2)c(C(=O)OCC)nc1C [Compound 3a, Diethyl 6-methyl-3-phenylpyridine-2,5-dicarboxylate]	> 200	>7.5		>3.6	≤ 56.7	54.5 ± 2.36	>1	> 200	did not have leishmanicidal activity	>1	> 200	did not have antiparasitic activity		moderate activity		
CCOC(=O)c1nc(C)c(C(=O)O[C@@H]2C[C@@H](C)CC[C@@H]2C(C)C)cc1-c1ccc(C)cc1 [Compound 8b]	> 200	>3.9		>1.8	106.9 ± 0.5	> 200	>1			>1				slight activity		
CCOC(=O)c1nc(C)c(C(=O)O[C@@H]2C[C@H]3CC[C@@]2(C)C3(C)C)cc1-c1ccc(C)cc1 [Compound 9b, 2-Ethyl 5-((1S,2R,4R)-1,7,7-trimethylbicyclo[2.2.1]heptan-2-yl) 6-methyl-3-(p-tolyl)pyridine-2,5-dicarboxylate]	> 200	>5.2	< 40		< 40	22.3 ± 1.6	>2.5			>5.0					38.5	
CCOC(=O)c1nc(C)c(C(=O)OCc2ccc(C)cc2)cc1-c1ccc(C)cc1 [Compound 5b]	> 200	>1	> 200	>1	> 200		>1	> 200		>1	> 200	did not have antiparasitic activity				completely lose their trypanocidal activity
